Results: patent US5043342A (priority 1988, dated 1991)
Where a name gives a salt, the structure may show the parent alone. Read-outs that look alike come from different tables or passages of the source.

Tests used:
muscarinic receptors [1] = experiment: Radioligand binding: displacement of the muscarinic agonist 3H-Oxotremorine-M (3H-OXO-M) from rat cerebral cortex; design: species or system Hooded Lister rats; conditions: 2 nM 3H-OXO-M, rat cerebral cortex homogenate, 2 mM magnesium chloride, 37° C., 30 min, tested as the oxalate salt
muscarinic receptors [2] = format: binding, Hooded Lister rats; conditions: 0.27 nM 3H-QNB, rat cerebral cortex homogenate, 37° C., 30 min, tested as the oxalate salt

CCc1noc([C@@H]2CN3CC[C@@H]2C3)n1 (relative stereo) [Example E1, (±) exo-3-(3-Ethyl-1,2,4-oxadiazol-5-yl)-1-azabicyclo-[2.2.1]heptane oxalate salt]
IC50 (muscarinic receptors [1]): 31 nM | IC50 (muscarinic receptors [2]): 940 nM

CCc1noc(C2CN3CCC2C3)n1 (single isomer, unassigned; (-)) [Example E3, (-) exo-(3-Ethyl-1-1,2,4-oxadiazol-5-y1)-1-azabicyclo-[2.2.1]heptane oxalate salt]
IC50 (muscarinic receptors [1]; oxalate salt): 36 nM | IC50 (muscarinic receptors [2]; oxalate salt): 725 nM

CCc1noc(C2CN3CCC2C3)n1 (single isomer, unassigned; (+)) [Example E2, (+) exo-3-(3-Ethyl-1,2,4-oxadiazol-5-yl)-1-azabicyclo-[2.2.1]heptane oxylate salt]
IC50 (muscarinic receptors [1]): 26 nM | IC50 (muscarinic receptors [2]): 1590 nM
